Laboratory results published in paper PMC3721637 (Chemistry & biology, 2009).
No end group written: not given here. carboxyfluorescein = carboxyfluorescein N-terminal label

Columns and labels:
[1] = Biomarker dosing in rats following IFN-γ treatment, plasma level; type: in vivo, rat
[2] = target: recombinant soluble HLA-DQ2 heterodimer (thrombin-cleaved DQ2-αI-gliadin peptide complex) (human) (UniProt P01909); test: SEC

For “LQLQPF (PQPHLPY)3PQPQPF [[^13C3]-HHH-33-mer]”, the “IFN-γ-treated rats with biomarker detected in plasma” value ([1]; 20 mg oral gavage after 2 days i.v. IFN-γ, plasma 60 min, 3Q LC-MS/MS) was “one of four” and the “plasma level in IFN-γ-treated animal relative to control animal” value ([1]; rats, oral biomarker, single animals with detectable plasma biomarker) was ~ 10 fold.

B1: fluorescein-conjugated NNN-33-mer biomarker (peptide)
peptide: carboxyfluorescein-LQLQPFPQPNLPYPQPNLPYPQPNLPYPQPQPF
With B1 the fold by which EEE-33-mer binds more than this peptide [2] was 15.6 fold.

B2: fluorescein-conjugated EEE-33-mer (synthetically deamidated 33-mer from α2-gliadin) (peptide)
peptide: carboxyfluorescein-LQLQPFPQPELPYPQPELPYPQPELPYPQPQPF
In the case of B2, the percent of peptide bound [2] is reported as > 80%.
